From the kinase profiling compilation of Christmann-Franck et al. (2016)

Columns and labels:
Test in all cases: radiometric filter-binding kinase assay
[1] = target: BTK (human) (UniProt Q06187)
[2] = target: CDK2 CCNA2 (human) (UniProt P20248+P24941)
[3] = target: CHEK1 (human) (UniProt O14757)
[4] = target: CSNK2A1 (human) (UniProt P68400)
[5] = target: EEF2K (human) (UniProt O00418)
[6] = target: IKBKB (human) (UniProt O14920)
[7] = target: INSRR (human) (UniProt P14616)
[8] = target: MAP2K1 (human) (UniProt Q02750)
[9] = target: MAPK9 (human) (UniProt P45984)
[10] = target: MAPKAPK2 (human) (UniProt P49137)
[11] = target: MARK3 (human) (UniProt P27448)
[12] = target: MKNK2 (human) (UniProt Q9HBH9)
[13] = target: MYLK (human) (UniProt Q15746)
[14] = target: NEK6 (human) (UniProt Q9HC98)
[15] = target: PAK6 (human) (UniProt Q9NQU5)
[16] = target: PIM1 (human) (UniProt P11309)
[17] = target: PIM2 (human) (UniProt Q9P1W9)
[18] = target: PIM3 (human) (UniProt Q86V86)
[19] = target: PKN2 (human) (UniProt Q16513)
[20] = target: RPS6KA5 KD1 KD2 (human) (UniProt O75582)
[21] = system: RPS6KB1 (human), P23443 [T412E]
[22] = target: SRPK1 (human) (UniProt Q96SB4)
[23] = target: STK3 (human) (UniProt Q13188)
[24] = target: TBK1 (human) (UniProt Q9UHD2)
[25] = target: YES1 (human) (UniProt P07947)

Chain of PAK6 (human) (Q9NQU5 whole entry, looked up): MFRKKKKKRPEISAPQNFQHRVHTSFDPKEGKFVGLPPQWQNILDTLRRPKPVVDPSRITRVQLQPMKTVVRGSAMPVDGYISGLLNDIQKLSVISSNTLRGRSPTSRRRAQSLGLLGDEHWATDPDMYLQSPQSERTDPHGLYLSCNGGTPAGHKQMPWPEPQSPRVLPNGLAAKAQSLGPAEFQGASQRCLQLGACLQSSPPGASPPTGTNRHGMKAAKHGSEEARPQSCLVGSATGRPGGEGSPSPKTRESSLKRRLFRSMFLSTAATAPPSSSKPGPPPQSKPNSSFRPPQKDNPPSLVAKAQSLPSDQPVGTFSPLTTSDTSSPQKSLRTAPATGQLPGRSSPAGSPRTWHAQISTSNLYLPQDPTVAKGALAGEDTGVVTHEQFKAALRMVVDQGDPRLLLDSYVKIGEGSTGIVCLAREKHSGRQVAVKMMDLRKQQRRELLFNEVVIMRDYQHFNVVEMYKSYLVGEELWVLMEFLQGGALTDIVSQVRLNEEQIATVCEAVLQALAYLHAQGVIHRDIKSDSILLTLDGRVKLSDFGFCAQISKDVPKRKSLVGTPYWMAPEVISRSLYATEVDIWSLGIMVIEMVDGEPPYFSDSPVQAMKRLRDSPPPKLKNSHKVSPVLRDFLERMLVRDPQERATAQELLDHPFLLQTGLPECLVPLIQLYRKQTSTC
Chain of TBK1 (human) (Q9UHD2 whole entry, looked up): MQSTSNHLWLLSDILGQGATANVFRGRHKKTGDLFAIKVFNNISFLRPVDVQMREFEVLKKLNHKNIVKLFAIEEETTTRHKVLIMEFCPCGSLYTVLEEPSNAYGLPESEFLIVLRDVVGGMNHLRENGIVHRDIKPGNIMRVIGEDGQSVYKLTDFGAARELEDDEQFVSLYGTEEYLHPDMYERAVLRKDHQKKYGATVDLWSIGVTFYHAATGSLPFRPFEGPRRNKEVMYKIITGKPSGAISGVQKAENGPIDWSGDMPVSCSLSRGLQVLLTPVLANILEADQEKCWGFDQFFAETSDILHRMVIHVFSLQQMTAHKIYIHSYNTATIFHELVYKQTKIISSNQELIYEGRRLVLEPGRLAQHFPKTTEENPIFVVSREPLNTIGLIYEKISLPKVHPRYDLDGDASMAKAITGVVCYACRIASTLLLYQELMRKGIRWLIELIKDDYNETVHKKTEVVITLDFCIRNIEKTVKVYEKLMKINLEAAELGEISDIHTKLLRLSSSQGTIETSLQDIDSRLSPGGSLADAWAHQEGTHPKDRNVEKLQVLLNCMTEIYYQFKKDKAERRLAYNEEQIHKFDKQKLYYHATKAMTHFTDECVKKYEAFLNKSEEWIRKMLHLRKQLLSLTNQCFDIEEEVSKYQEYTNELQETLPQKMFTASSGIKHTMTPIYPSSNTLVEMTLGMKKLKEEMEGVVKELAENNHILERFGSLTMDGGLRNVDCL
Chain of STK3 (human) (Q13188 whole entry, looked up): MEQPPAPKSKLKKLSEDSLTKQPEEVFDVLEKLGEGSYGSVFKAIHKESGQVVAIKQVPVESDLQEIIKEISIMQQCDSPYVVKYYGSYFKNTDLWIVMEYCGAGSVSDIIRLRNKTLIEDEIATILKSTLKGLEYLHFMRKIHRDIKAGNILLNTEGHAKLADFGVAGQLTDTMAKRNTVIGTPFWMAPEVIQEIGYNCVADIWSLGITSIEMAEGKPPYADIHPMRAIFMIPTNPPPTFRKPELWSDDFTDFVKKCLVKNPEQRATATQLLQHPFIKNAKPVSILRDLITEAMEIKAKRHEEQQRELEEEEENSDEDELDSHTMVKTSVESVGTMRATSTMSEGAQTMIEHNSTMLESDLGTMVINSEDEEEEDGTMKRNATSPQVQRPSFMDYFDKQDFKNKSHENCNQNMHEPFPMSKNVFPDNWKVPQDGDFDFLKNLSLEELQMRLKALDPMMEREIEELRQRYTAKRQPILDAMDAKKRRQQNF
Chain of MAP2K1 (human) (Q02750 whole entry, looked up): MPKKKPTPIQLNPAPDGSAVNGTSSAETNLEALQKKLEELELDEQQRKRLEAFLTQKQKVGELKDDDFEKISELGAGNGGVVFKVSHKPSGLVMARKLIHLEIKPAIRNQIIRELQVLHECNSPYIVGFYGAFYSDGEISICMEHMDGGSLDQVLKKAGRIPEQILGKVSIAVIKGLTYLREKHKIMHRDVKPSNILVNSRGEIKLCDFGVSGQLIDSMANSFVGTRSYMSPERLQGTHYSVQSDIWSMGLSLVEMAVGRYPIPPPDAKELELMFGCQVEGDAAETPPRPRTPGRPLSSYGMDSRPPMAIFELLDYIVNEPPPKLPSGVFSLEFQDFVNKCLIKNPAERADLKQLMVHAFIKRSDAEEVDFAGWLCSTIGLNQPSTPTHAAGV
Chain of NEK6 (human) (Q9HC98 whole entry, looked up): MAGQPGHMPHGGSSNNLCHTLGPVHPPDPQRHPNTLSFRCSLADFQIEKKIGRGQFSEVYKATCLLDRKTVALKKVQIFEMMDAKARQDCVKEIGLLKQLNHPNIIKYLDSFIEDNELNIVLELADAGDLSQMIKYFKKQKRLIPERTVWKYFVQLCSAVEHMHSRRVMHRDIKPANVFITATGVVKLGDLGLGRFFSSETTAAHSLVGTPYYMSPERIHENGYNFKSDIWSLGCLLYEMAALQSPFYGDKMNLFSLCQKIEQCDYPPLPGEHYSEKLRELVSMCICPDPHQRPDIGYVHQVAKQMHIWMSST
Chain of MARK3 (human) (P27448 whole entry, looked up): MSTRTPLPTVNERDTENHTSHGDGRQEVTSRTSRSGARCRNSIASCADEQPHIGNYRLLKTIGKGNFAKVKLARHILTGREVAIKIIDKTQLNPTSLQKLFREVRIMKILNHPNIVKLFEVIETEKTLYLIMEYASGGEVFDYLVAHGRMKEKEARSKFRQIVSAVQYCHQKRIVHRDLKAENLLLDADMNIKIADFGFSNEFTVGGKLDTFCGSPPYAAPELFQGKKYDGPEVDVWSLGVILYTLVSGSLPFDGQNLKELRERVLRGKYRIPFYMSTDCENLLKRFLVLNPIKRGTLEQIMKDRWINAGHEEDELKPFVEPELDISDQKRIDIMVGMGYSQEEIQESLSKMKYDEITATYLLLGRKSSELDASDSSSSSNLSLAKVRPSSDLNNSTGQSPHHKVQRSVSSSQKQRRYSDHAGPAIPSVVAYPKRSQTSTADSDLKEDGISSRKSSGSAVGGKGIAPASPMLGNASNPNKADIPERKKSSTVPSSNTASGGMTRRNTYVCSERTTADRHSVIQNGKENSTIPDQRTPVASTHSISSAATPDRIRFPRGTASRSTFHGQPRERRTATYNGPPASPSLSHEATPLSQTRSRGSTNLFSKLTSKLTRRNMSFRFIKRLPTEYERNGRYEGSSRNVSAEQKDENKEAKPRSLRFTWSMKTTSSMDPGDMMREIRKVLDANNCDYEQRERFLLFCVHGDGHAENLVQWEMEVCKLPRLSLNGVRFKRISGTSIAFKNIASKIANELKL
Chain of EEF2K (human) (O00418 whole entry, looked up): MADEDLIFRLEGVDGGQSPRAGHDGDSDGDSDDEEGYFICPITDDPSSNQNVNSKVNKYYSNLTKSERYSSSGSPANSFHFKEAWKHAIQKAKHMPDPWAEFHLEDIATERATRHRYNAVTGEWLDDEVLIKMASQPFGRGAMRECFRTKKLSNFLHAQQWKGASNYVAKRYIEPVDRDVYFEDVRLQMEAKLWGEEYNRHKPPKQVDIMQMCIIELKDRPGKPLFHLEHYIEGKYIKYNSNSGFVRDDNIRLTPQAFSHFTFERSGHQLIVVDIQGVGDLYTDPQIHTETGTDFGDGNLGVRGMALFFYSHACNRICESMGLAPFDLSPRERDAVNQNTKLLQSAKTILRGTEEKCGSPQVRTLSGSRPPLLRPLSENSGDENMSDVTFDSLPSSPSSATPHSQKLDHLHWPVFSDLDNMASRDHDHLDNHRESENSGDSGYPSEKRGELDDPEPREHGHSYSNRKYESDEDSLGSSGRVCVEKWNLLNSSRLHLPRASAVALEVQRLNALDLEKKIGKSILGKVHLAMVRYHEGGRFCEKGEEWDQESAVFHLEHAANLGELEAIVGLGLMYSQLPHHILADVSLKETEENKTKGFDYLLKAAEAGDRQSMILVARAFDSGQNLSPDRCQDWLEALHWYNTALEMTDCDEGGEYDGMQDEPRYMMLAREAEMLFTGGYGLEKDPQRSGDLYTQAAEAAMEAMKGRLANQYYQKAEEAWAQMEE
Chain of MAPK9 (human) (P45984 whole entry, looked up): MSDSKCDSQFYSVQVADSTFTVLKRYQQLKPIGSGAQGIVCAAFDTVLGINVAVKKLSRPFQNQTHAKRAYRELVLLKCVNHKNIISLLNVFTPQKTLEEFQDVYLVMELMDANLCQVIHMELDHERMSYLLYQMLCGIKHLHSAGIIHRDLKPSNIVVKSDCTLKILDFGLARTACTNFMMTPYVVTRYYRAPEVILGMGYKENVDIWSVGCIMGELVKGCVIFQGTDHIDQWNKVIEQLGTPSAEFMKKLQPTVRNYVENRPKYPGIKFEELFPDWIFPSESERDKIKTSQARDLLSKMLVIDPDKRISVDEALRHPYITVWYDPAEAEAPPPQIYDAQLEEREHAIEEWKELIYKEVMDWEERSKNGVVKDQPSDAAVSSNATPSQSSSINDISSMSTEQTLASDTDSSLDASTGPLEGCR

Q: Which residual activity ([1]; compound 0.1 µM) does the source give for CCc1cncnc1N1CCN(Cc2nc3cc(C(F)(F)F)ccc3[nH]2)CC1 here?
A: 83%

Q: What about the residual activity ([1]; compound 1.0 µM) of the same molecule?
A: 87%

Q: And the residual activity ([1]; compound 10.0 µM)?
A: 92%

Q: What about the residual activity ([2]; compound 1.0 µM) of the same molecule?
A: 101%

Q: And the residual activity ([2]; compound 10.0 µM)?
A: 88%

Q: And the residual activity ([3]; compound 0.1 µM)?
A: 90%

Q: What about the residual activity ([3]; compound 1.0 µM) of the same molecule?
A: 83%

Q: What about the residual activity ([3]; compound 10.0 µM) of the same molecule?
A: 83%

Q: What about the residual activity ([4]; compound 0.1 µM) of the same molecule?
A: 96%

Q: What about the residual activity ([4]; compound 1.0 µM) of the same molecule?
A: 92%

Q: And the residual activity ([4]; compound 10.0 µM)?
A: 83%

Q: And the residual activity ([5]; compound 0.1 µM)?
A: 90%

Q: And the residual activity ([5]; compound 1.0 µM)?
A: 73%

Q: What about the residual activity ([5]; compound 10.0 µM) of the same molecule?
A: 78%

Q: What about the residual activity ([6]; compound 0.1 µM) of the same molecule?
A: 104%

Q: And the residual activity ([6]; compound 1.0 µM)?
A: 119%

Q: And the residual activity ([6]; compound 10.0 µM)?
A: 102%

Q: And the residual activity ([7]; compound 0.1 µM)?
A: 88%

Q: What about the residual activity ([7]; compound 1.0 µM) of the same molecule?
A: 96%

Q: What about the residual activity ([7]; compound 10.0 µM) of the same molecule?
A: 77%

Q: What about the residual activity ([8]; compound 0.1 µM) of the same molecule?
A: 117%

Q: And the residual activity ([8]; compound 1.0 µM)?
A: 104%

Q: And the residual activity ([8]; compound 10.0 µM)?
A: 96%

Q: What about the residual activity ([9]; compound 0.1 µM) of the same molecule?
A: 92%

Q: And the residual activity ([9]; compound 1.0 µM)?
A: 93%

Q: And the residual activity ([9]; compound 10.0 µM)?
A: 98%

Q: What about the residual activity ([10]; compound 1.0 µM) of the same molecule?
A: 105%

Q: And the residual activity ([10]; compound 10.0 µM)?
A: 78%

Q: And the residual activity ([11]; compound 0.1 µM)?
A: 94%

Q: And the residual activity ([11]; compound 1.0 µM)?
A: 83%

Q: And the residual activity ([11]; compound 10.0 µM)?
A: 82%

Q: What about the residual activity ([12]; compound 0.1 µM) of the same molecule?
A: 92%

Q: And the residual activity ([12]; compound 1.0 µM)?
A: 93%

Q: And the residual activity ([12]; compound 10.0 µM)?
A: 79%

Q: And the residual activity ([13]; compound 0.1 µM)?
A: 95%

Q: And the residual activity ([13]; compound 1.0 µM)?
A: 79%

Q: And the residual activity ([13]; compound 10.0 µM)?
A: 87%

Q: What about the residual activity ([14]; compound 0.1 µM) of the same molecule?
A: 88%

Q: What about the residual activity ([14]; compound 1.0 µM) of the same molecule?
A: 75%

Q: What about the residual activity ([14]; compound 10.0 µM) of the same molecule?
A: 80%

Q: What about the residual activity ([15]; compound 0.1 µM) of the same molecule?
A: 99%

Q: And the residual activity ([15]; compound 1.0 µM)?
A: 83%

Q: What about the residual activity ([15]; compound 10.0 µM) of the same molecule?
A: 86%

Q: And the residual activity ([16]; compound 0.1 µM)?
A: 88%

Q: What about the residual activity ([16]; compound 1.0 µM) of the same molecule?
A: 90%

Q: And the residual activity ([16]; compound 10.0 µM)?
A: 78%

Q: What about the residual activity ([17]; compound 0.1 µM) of the same molecule?
A: 90%

Q: And the residual activity ([17]; compound 1.0 µM)?
A: 90%

Q: What about the residual activity ([17]; compound 10.0 µM) of the same molecule?
A: 100%

Q: What about the residual activity ([18]; compound 0.1 µM) of the same molecule?
A: 93%

Q: What about the residual activity ([18]; compound 1.0 µM) of the same molecule?
A: 88%

Q: And the residual activity ([18]; compound 10.0 µM)?
A: 83%

Q: What about the residual activity ([19]; compound 0.1 µM) of the same molecule?
A: 95%

Q: And the residual activity ([19]; compound 1.0 µM)?
A: 86%

Q: And the residual activity ([19]; compound 10.0 µM)?
A: 84%

Q: What about the residual activity ([20]; compound 0.1 µM) of the same molecule?
A: 80%

Q: What about the residual activity ([20]; compound 1.0 µM) of the same molecule?
A: 34%

Q: And the residual activity ([20]; compound 10.0 µM)?
A: 6%

Q: And the residual activity ([21]; compound 0.1 µM)?
A: 39%

Q: And the residual activity ([21]; compound 1.0 µM)?
A: 16%

Q: What about the residual activity ([21]; compound 10.0 µM) of the same molecule?
A: 6%

Q: And the residual activity ([22]; compound 0.1 µM)?
A: 108%

Q: What about the residual activity ([22]; compound 1.0 µM) of the same molecule?
A: 106%

Q: What about the residual activity ([22]; compound 10.0 µM) of the same molecule?
A: 101%

Q: What about the residual activity ([23]; compound 0.1 µM) of the same molecule?
A: 95%

Q: And the residual activity ([23]; compound 1.0 µM)?
A: 85%

Q: What about the residual activity ([23]; compound 10.0 µM) of the same molecule?
A: 77%

Q: What about the residual activity ([24]; compound 0.1 µM) of the same molecule?
A: 108%

Q: What about the residual activity ([24]; compound 1.0 µM) of the same molecule?
A: 105%

Q: What about the residual activity ([24]; compound 10.0 µM) of the same molecule?
A: 97%

Q: And the residual activity ([25]; compound 0.1 µM)?
A: 98%

Q: What about the residual activity ([25]; compound 1.0 µM) of the same molecule?
A: 84%

Q: What about the residual activity ([25]; compound 10.0 µM) of the same molecule?
A: 76%
